Measurements reported in US20240008480A1, “MICROCAPSULE WITH ACETAMIDES AND DIFLUFENICAN” (MONSANTO TECHNOLOGY LLC, priority 2020, published 2024).

Key:
[1] = tested on: glyphosate resistant Canola (Roundup Ready® Canola); experiment: Greenhouse post-emergent efficacy in glyphosate resistant Canola, Example 3C; type: in vivo; conditions: text statement on Table 3C
Method: ACC and DFF were used as the commercial products Warrant® and Brodal® as described in Example 3A above. The seeds of glyphosate resistant Canola (Roundup Ready® Canola) were planted in 3.5-inches (8.89 cm) square plastic pots filled with a potting media of 75% silt loam and 25% Redi-earth (Sun Gro, Bellevue, WA). The temperature conditions were 22° C. day and 17° C. night with 14 hours of supplemental light (approximately 600 microeinsteins). The pots are placed in a controlled-environment greenhouse equipped with sub-irrigation. The treatments applications were applied to the plants with a track sprayer generally using a TTI110015 nozzle spray nozzle. The spray nozzle was 16 inches (40.64 cm) above the top of the plants and a spray volume rate of about 140 L/ha was applied. The plants were sprayed when canola was at the V3-V4 growth stage. Visual ratings (% control) were collected at 14 DAT.

[2] = tested on: GR (glyphosate resistant) palmer amaranth (AMAPA); experiment: Greenhouse pre-emergent efficacy, Example 3B; type: in vivo, Amaranthus palmeri
From the text: (§1) ACC, DFF and MRB were used as the commercial products Warrant®, Brodal® and TriCor® DF as described in Example 3A above. Further, also a DFF+MRB pre-mix (200 g/L DFF+400 g/L MRB, suspension concentrate) was used. For GR (glyphosate resistant) palmer amaranth (AMAPA), at 1X rate, all 2- and 3-way treatments provided >95% control. Except for the DFF+MRB pre-mix, these treatments also provided >95% control of GR AMAPA at ½X rate as well. No single active ingredient provided acceptable control of GR AMAPA in this trial.

[3] = tested on: proso millet (PANMI); experiment: Greenhouse pre-emergent efficacy, Example 3B; type: in vivo, Panicum miliaceum; conditions: both rates tested
From the text: as §1

Compound | herbicidal activity on glyphosate resistant Canola, in words [1] | control of GR AMAPA, in words [2] | control of proso millet (PANMI), in words [3]
CCOCN(C(=O)CCl)c1c(C)cccc1CC [ACC, 2-chloro-N-(ethoxymethyl)-N-(2-ethyl-6-methylphenyl)acetamide] | very low herbicidal activity | weak control | weak control
O=C(Nc1ccc(F)cc1F)c1cccnc1Oc1cccc(C(F)(F)F)c1 [DFF, N-(2,4-difluorophenyl)-2-[3-(trifluoromethyl)phenoxy]-3-pyridinecarboxamide] |  | weak control | weak control
